PubChem BioAssay AID2060902 (Molecular Pharmacology Branch, DTP, NCI, 2025)

Tested on: 485368-065-R3-J5-PDC spheroids with HUVEC/MSC, viability
Experiment: Anticancer human tumor 485368-065-R3-J5-PDC patient-derived pancreatic carcinoma cell line growth inhibition [RAS]
Conditions: for viability, T/C: stronger effect = lower value
Source text: RAS pathway inhibitors in Combinations in Complex Spheroids
A high-throughput screen of multi-cell type tumor spheroids was designed to identify active combinations of RAS pathway inhibitors and targeted small molecules. Complex spheroids include a stromal component modeled by human endothelial cells (HUVEC) and fibroblasts modeled by human mesenchymal stem cells (MSCs). The concentration ranges selected for each drug and investigational agent were based upon clinically achievable concentrations if the clinical Cmax of the agent was known.
Compounds. The drugs and investigational agents: abemaciclib (NSC768073), cobimetinib (NSC768068), divarasib (GDC6063, NSC841802), docetaxel (NSC628503), GDC-1971 (RLY-1971, NSC841576), gemcitabine (NSC613327), inavolisib (NSC800729), ipatasertib (NSC767898), KB-0742 (NSC834161), MRTX-1133 (NSC836407), osimertinib (NSC779217), RMC-4630 (NSC839698), RMC-6236 (NSC851965), RMC-6291 (NSC852671), Ro-3306 (NSC812927), sapanisertib (NSC764658), SN-38 (NSC673596), staurosporine (NSC755774), SY5609 (NSC837396), and tovorafenib (DAY101, NSC766906), were obtained from the National Cancer Institute (NCI) Developmental Therapeutics Program Chemical Repository. The FDA-approved anticancer drug set is available from the NCI Developmental Therapeutics Program. […] The stock solutions were prepared in dimethyl sulfoxide (DMSO, Sigma-Aldrich, St. Louis, MO, cat. D2650) at 800-fold the tested concentration and stored at -70 degrees C prior to their use. All drugs and investigational agents were tested over a range starting from a high concentration at or near the clinical Cmax and decreasing in half-log increments. If the clinical Cmax for an agent had not been determined, the highest concentration tested was 10 microM.
Cell Culture. All cells were maintained in an incubator at 37 degrees C and 5% CO2 with 95% humidity. The PDC lines were cultured according to standard operating procedures established by the NCI PDMR. All PDCs were thawed and cultured in Matrigel-coated flasks prepared with a working solution of 1X Ham's F-12 nutrient mix, without supplementation (Invitrogen, Waltham, MA, cat. 11765054), 100 U/mL penicillin-streptomycin (Invitrogen, cat. 15140122), and 2.5% Matrigel (Corning Inc., Corning, NY, cat. 354248) for the first three passages. The 362531-283-R-J2-PDC and 782815-120-R-J1-PDC lines were cultured in 6C/Colon 1B media, which includes advanced DMEM/F-12 (Thermo Fisher Scientific, cat. 12634028), 10 mM HEPES (Thermo Fisher Scientific, cat. 15630080), 1X GlutaMAX supplement (Thermo Fisher Scientific, cat. 35050061), 0.1 mg/mL primocin (InvivoGen, San Diego, CA, cat. ant-pm-2), 10% defined fetal bovine serum, heat inactivated (HyClone Laboratories Inc., Logan, UT, cat. SH30070.03HI), 50% L-WRN conditioned media (ATCC, cat. CRL-3276), 1.25 mM N-Acetyl-L-cysteine (Sigma-Aldrich, cat. A9165), 10 mM nicotinamide (Sigma-Aldrich, cat. N0636), 1X B-27 supplement (Thermo Fisher Scientific, cat. 17504044), 1X N-2 supplement (Thermo Fisher Scientific, cat. 17502048), 50 ng/mL human EGF (Thermo Fisher Scientific, cat. PHG0311), and 10 microM Y-27632 dihydrochloride (Tocris Bioscience, cat. 1254). The K12877-001-R-J1-PDC line was cultured in 6I media, which includes all 6C/Colon 1B media plus 10 ng/mL human FGF-10 (PeproTech, cat. 100-26), 1 ng/mL human FGF-2 (PeproTech, cat. 100-18B), 1 µM prostaglandin E2 (Tocris Bioscience, cat. 2296), […] hydrocortisone (Sigma-Aldrich, cat. H4001), and […] bovine insulin (Sigma-Aldrich, cat. I6634). The K86415-001-R-J1-PDC line was cultured in 6D media, which includes all 6C/Colon 1B media components minus the L-WRN conditioned media. The 485176-168-R4-J1-PDC was cultured in PANC media, which includes all 6C/Colon 1B media plus 100 ng/mL human FGF-10 (PeproTech, cat. 100-26), 500 nM SB-431542 (Selleckchem, cat. S1067), and 10 nM gastrin (Tocris Bioscience, cat. 3006). […]
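Further: spheroids exposed to agents for seven days before readout.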

CC(=O)OC12COC1CC(O)C1(C)C(=O)C(O)C3=C(C)C(OC(=O)C(O)C(NC(=O)OC(C)(C)C)c4ccccc4)CC(O)(C(OC(=O)c4ccccc4)C21)C3(C)C (centres undefined)
viability, T/C (compound 0.0316 µM): 16.4% [middle of 4 runs]
viability, T/C (compound 0.1 µM): 15.4% [middle of 4 runs]
viability, T/C (compound 0.316 µM): 14% [middle of 4 runs]
viability, T/C (compound 1 µM): 16.1% [middle of 4 runs]
viability, T/C (compound 3.16 µM): 19.1% [middle of 4 runs]
viability, T/C (compound 10 µM): 29.6% [middle of 4 runs]
IC50 (curve of compound): < 31.6 nM

C=CC(=O)N1CCN(c2nc(OCC3CCCN3C)nc3c(F)c(-c4nc(N)cc(C)c4C(F)(F)F)c(Cl)cc23)C(C)C1 (centres undefined) + CCn1c(-c2cccnc2C(C)OC)c2c3cc(ccc31)N1CCOC(CC(NC(=O)C(C(C)C)N(C)C(=O)C3(F)CCN(C(=O)C#CC(C)(C)N(C)C)CC3)C(=O)N3CCCC(N3)C(=O)OCC(C)(C)C2)C1
IC50 (curve of first compound, second compound 0.000949 µM): > 1000 nM
IC50 (curve of first compound, second compound 0.003 µM): > 1000 nM
IC50 (curve of first compound, second compound 0.00949 µM): > 1000 nM
IC50 (curve of first compound, second compound 0.03 µM): > 1000 nM
IC50 (curve of first compound, second compound 0.0949 µM): > 1000 nM
IC50 (curve of first compound, second compound 0.3 µM): > 1000 nM
viability, T/C (second compound 0.000949 µM, first compound 0.00316 µM): 113%
viability, T/C (second compound 0.000949 µM, first compound 0.01 µM): 96%
viability, T/C (second compound 0.000949 µM, first compound 0.0316 µM): 102%
viability, T/C (second compound 0.000949 µM, first compound 0.1 µM): 99.8%
viability, T/C (second compound 0.000949 µM, first compound 0.316 µM): 105%
viability, T/C (second compound 0.000949 µM, first compound 1 µM): 97.5%
viability, T/C (second compound 0.003 µM, first compound 0.00316 µM): 110%
viability, T/C (second compound 0.003 µM, first compound 0.01 µM): 99.5%
viability, T/C (second compound 0.003 µM, first compound 0.0316 µM): 107%
viability, T/C (second compound 0.003 µM, first compound 0.1 µM): 101%
viability, T/C (second compound 0.003 µM, first compound 0.316 µM): 119%
viability, T/C (second compound 0.003 µM, first compound 1 µM): 107%
viability, T/C (second compound 0.00949 µM, first compound 0.00316 µM): 95.9%
viability, T/C (second compound 0.00949 µM, first compound 0.01 µM): 104%
viability, T/C (second compound 0.00949 µM, first compound 0.0316 µM): 97.1%
viability, T/C (second compound 0.00949 µM, first compound 0.1 µM): 103%
viability, T/C (second compound 0.00949 µM, first compound 0.316 µM): 110%
viability, T/C (second compound 0.00949 µM, first compound 1 µM): 104%
viability, T/C (second compound 0.03 µM, first compound 0.00316 µM): 87.6%
viability, T/C (second compound 0.03 µM, first compound 0.01 µM): 99.6%
viability, T/C (second compound 0.03 µM, first compound 0.0316 µM): 97.3%
viability, T/C (second compound 0.03 µM, first compound 0.1 µM): 106%
viability, T/C (second compound 0.03 µM, first compound 0.316 µM): 107%
viability, T/C (second compound 0.03 µM, first compound 1 µM): 108%
viability, T/C (second compound 0.0949 µM, first compound 0.00316 µM): 99.4%
viability, T/C (second compound 0.0949 µM, first compound 0.01 µM): 99.8%
viability, T/C (second compound 0.0949 µM, first compound 0.0316 µM): 108%
viability, T/C (second compound 0.0949 µM, first compound 0.1 µM): 93.9%
viability, T/C (second compound 0.0949 µM, first compound 0.316 µM): 115%
viability, T/C (second compound 0.0949 µM, first compound 1 µM): 93.1%
viability, T/C (second compound 0.3 µM, first compound 0.00316 µM): 96.2%
viability, T/C (second compound 0.3 µM, first compound 0.01 µM): 104%
viability, T/C (second compound 0.3 µM, first compound 0.0316 µM): 95.6%
viability, T/C (second compound 0.3 µM, first compound 0.1 µM): 106%
viability, T/C (second compound 0.3 µM, first compound 0.316 µM): 105%
viability, T/C (second compound 0.3 µM, first compound 1 µM): 94.8%
